What was measured:
Assay in all cases: Test C greenhouse herbicide test, pre- and postemergence
Format in all cases: in vivo
[1] = test system: blackgrass (Alopecurus myosuroides)
How it was run: (§1)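 Pre- and postemergence greenhouse screen; values are visual control ratings, 0 meaning no effect and 100 complete kill, assigned relative to untreated plants after 13 to 15 d.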

[2] = test system: corn (Zea mays)
How it was run: as §1

[3] = test system: crabgrass, large (large crabgrass, Digitaria sanguinalis)
How it was run: as §1

[4] = test system: foxtail, giant (giant foxtail, Setaria faberii)
How it was run: as §1

[5] = test system: galium (catchweed bedstraw, Galium aparine)
How it was run: as §1

[6] = test system: johnsongrass (Sorghum halepense)
How it was run: as §1

[7] = test system: lambsquarters (Chenopodium album)
How it was run: as §1

[8] = test system: morningglory (Ipomoea coccinea)
How it was run: as §1

[9] = test system: nutsedge, yellow (yellow nutsedge, Cyperus esculentus)
How it was run: as §1

[10] = test system: oilseed rape (Brassica napus)
How it was run: as §1

[11] = test system: pigweed (Amaranthus retroflexus)
How it was run: as §1

[12] = test system: ryegrass, Italian (Italian ryegrass, Lolium multiflorum)
How it was run: as §1

[13] = test system: soybean (Glycine max)
How it was run: as §1

[14] = test system: velvetleaf (Abutilon theophrasti)
How it was run: as §1

[15] = test system: waterhemp (common waterhemp, Amaranthus rudis)
How it was run: as §1

[16] = test system: wheat (winter wheat, Triticum aestivum)
How it was run: as §1

[17] = Postemergence, 31 g ai/ha, 0 to 100 scale (0 no effect, 100 complete control)
[18] = Postemergence, 125 g ai/ha, scale 0 to 100, 0 is no effect, 100 is complete control
[19] = Postemergence, 250 g ai/ha, scale 0 to 100, 0 no effect, 100 complete control, 13 to 15 d
[20] = postemergence, 62 g ai/ha, scale 0 to 100, 0 no effect, 100 complete control

SMILES: Cc1nn(C)c(=O)c(-c2c(C)sc3ccccc23)c1O [Compound 65]
- Blackgrass plant response rating [1, 17]: 5
- Plant response rating, Blackgrass [1, 18]: 10
- Plant response rating, Blackgrass [1, 19]: 40
- Blackgrass plant response rating [1, 20]: 5
- Corn plant response rating [2, 17]: 5
- Plant response rating, Corn [2, 18]: 5
- Plant response rating, Corn [2, 19]: 5
- Corn plant response rating [2, 20]: 5
- Crabgrass, Large plant response rating [3, 17]: 5
- Plant response rating, Crabgrass, Large [3, 18]: 20
- Plant response rating, Crabgrass, Large [3, 19]: 25
- Crabgrass, Large plant response rating [3, 20]: 20
- Foxtail, Giant plant response rating [4, 17]: 10
- Plant response rating, Foxtail, Giant [4, 18]: 35
- Plant response rating, Foxtail, Giant [4, 19]: 60
- Foxtail, Giant plant response rating [4, 20]: 20
- Galium plant response rating [5, 17]: 85
- Plant response rating, Galium [5, 18]: 90
- Plant response rating, Galium [5, 19]: 90
- Galium plant response rating [5, 20]: 85
- Johnsongrass plant response rating [6, 17]: 5
- Plant response rating, Johnsongrass [6, 18]: 5
- Plant response rating, Johnsongrass [6, 19]: 5
- Johnsongrass plant response rating [6, 20]: 5
- Lambsquarters plant response rating [7, 17]: 90
- Plant response rating, Lambsquarters [7, 18]: 95
- Plant response rating, Lambsquarters [7, 19]: 100
- Lambsquarters plant response rating [7, 20]: 95
- Morningglory plant response rating [8, 17]: 75
- Plant response rating, Morningglory [8, 18]: 95
- Plant response rating, Morningglory [8, 19]: 95
- Morningglory plant response rating [8, 20]: 85
- Nutsedge, Yellow plant response rating [9, 17]: 25
- Plant response rating, Nutsedge, Yellow [9, 18]: 60
- Plant response rating, Nutsedge, Yellow [9, 19]: 65
- Nutsedge, Yellow plant response rating [9, 20]: 50
- Oilseed Rape plant response rating [10, 17]: 0
- Plant response rating, Oilseed Rape [10, 18]: 0
- Plant response rating, Oilseed Rape [10, 19]: 5
- Oilseed Rape plant response rating [10, 20]: 0
- Pigweed plant response rating [11, 17]: 90
- Plant response rating, Pigweed [11, 18]: 98
- Plant response rating, Pigweed [11, 19]: 100
- Pigweed plant response rating [11, 20]: 90
- Ryegrass, Italian plant response rating [12, 17]: 65
- Plant response rating, Ryegrass, Italian [12, 18]: 85
- Plant response rating, Ryegrass, Italian [12, 19]: 85
- Ryegrass, Italian plant response rating [12, 20]: 80
- Soybean plant response rating [13, 17]: 5
- Plant response rating, Soybean [13, 18]: 5
- Plant response rating, Soybean [13, 19]: 10
- Soybean plant response rating [13, 20]: 5
- Velvetleaf plant response rating [14, 17]: 10
- Plant response rating, Velvetleaf [14, 18]: 65
- Plant response rating, Velvetleaf [14, 19]: 75
- Velvetleaf plant response rating [14, 20]: 20
- Waterhemp plant response rating [15, 17]: 60
- Plant response rating, Waterhemp [15, 18]: 75
- Plant response rating, Waterhemp [15, 19]: 85
- Waterhemp plant response rating [15, 20]: 75
- Wheat plant response rating [16, 17]: 0
- Plant response rating, Wheat [16, 18]: 0
- Plant response rating, Wheat [16, 19]: 0
- Wheat plant response rating [16, 20]: 0
